We go through two compounds from publication PMC9890698 (BMC Biology, 2023).

The test system of test [1] is Gαq protein in HEK293T cells (pcDNA3.1). Briefly: Gαq protein activation BRET2 assay in control HEK293T cells without receptor (pcDNA3.1 / 0 μg). Type of test: cell-based, Human. As to conditions: pcDNA3.1, ADP 10 μM, 1 min, individual experiments. The source says: As previously described, using a BRET^2 (bioluminescence resonance energy transfer)-based assay, we directly monitored the basal Gαq protein activation by measuring the interaction between Gαq and Gγ2 subunits of the Gαqβ1γ2 heterotrimer complex. Indeed, this assay is based on the non-radiative transfer between the Renilla reniformis luciferase (RLuc8) energy donor fused to the Gαq protein subunit and the fluorescent GFP2 energy acceptor fused to Gγ2 protein subunit (Fig. 1a). […] By contrast, ligand-independent constitutive receptor activation or agonist-induced receptor activation will promote Gαq/Gγ2 subunit dissociation, thereby leading to a decrease of the basal BRET signal (Fig. 1a). […] To preclude any P2Y1-R activation by a passive release of ADP by HEK293T cells, we performed similar experiments in the presence of high concentration of apyrase (0.2U/mL) to degrade any trace of ADP in the medium (Additional File 2: Fig. S2a). Under these conditions, P2Y1-R expression still induces a marked and significant decrease of the basal BRET signal compared to control cells (pcDNA3.1), thereby supporting a P2Y1-R-dependent constitutive activation of Gαq protein. […] Of note, because P2Y1-R and AT1-R were respectively Myc- and HA-tagged and were thus detected using different primary antibodies, their expression at the cell surface cannot be compared between each other’s.
G protein activation and β-arrestin 2 recruitment were performed as previously described. […] BRET signal between RLuc8 and GFP2 was measured after addition of the luciferase substrate coelenterazine 400a (5 μM). […] BRET signal was recorded after incubation with coelenterazine h (5 μM) for 8 min. For kinetics studies, BRET signal between RLuc and Venus was recorded at 20-s intervals at basal state for the 2 first minutes and then for 5 min after ligand injection. For saturation curves (BRET^1), the expression level of Venus- or RLuc-tagged protein was determined by direct measurement of total fluorescence and luminescence respectively. Total fluorescence was first measured with an excitation filter at 485 nm and an emission filter at 520 nm. Then, the same sample was incubated for 8 minutes with 5 μM coelenterazine h and the total luminescence was measured. BRET^2 and BRET^1 readings were collected using a modified Infinite F500 (Tecan Group Ltd). The BRET^2 signal was calculated by the ratio of emission of GFP2 (510–540 nm) to RLuc8 (370–450 nm) and the BRET^1 signal by the ratio of emission of Venus (520–570 nm) to RLuc (370–480 nm). Sometimes, results are expressed as the Net BRET computed by deducting the BRET background signal (obtained in the presence of the energy donor alone) from the BRET signal (acquired from cells expressing both the energy donor and acceptor).

The subject of another test is P2Y1-R. On the set-up: method as in PMID 29724785. As to conditions: Alzheimer's disease mouse model, result in words; cited from earlier work.

Several values for one entry are separate records, joined by “and”; a condition that tells them apart may be missing. Identical values can stand only once.

Consider `Nc1ncnc2c1ncn2[C@@H]1O[C@H](COP(=O)(O)OP(=O)(O)O)[C@@H](O)[C@H]1O` [ADP, adenosine diphosphate], for which the “ADP-modulated BRET” value in test [1] is -0.02779 and 0.00353 and 0.02201 and 0.01275 and 0.006152 and -0.007154.

On to `CNc1ncnc2c1ncn2[C@H]1C[C@H](OP(=O)(O)O)[C@@H](COP(=O)(O)O)O1` [MRS2179], for which the “Effect on network homeostasis, spatial learning and memory” value in the test on P2Y1-R is “restored network homeostasis and protected from the decline of spatial learning and memory”.
